Assay results as given in patent US10251865B2, “Method of activating regulatory T cells with alpha-2B adrenergic receptor agonists” (Allergan, Inc., priority 2010, dated 2019).

Tests used:
CD4+/CD25+ Treg cells = assay: Treg cell frequency in lymphatic organs of SNL rats (flow cytometry); format: in vivo; settings: SNL Rat Model of Allodynic Neuropathic Pain, FIG. 2
Procedure: The SNL (or Chung) Model in the rat is an accepted standard animal model of neuropathic pain and is thought to mimic the human causalgia condition with respect to symptoms (guarding behavior, mechanical allodynia) and alleviation by pharmacological agents. […] The SNL Model is performed by tightly ligating the L-5 and L-6 spinal nerves, which produces tactile allodynia or sensitivity to light touch as described (Kim and Chung, 1992). Male sprague-dawley rats (100-120 grams; Charles River, Wilmington, Mass.) were anesthetized through inhalation of an isoflurane/oxygen mix. The surgical site was shaved and prepared with betadine. An incision was made from the thoracic vertebra XIII toward down the sacrum. The muscle was separated from the spinal vertebra (left side) at the L4-S2 levels. […]
To determine surface expression of CD4 (Helper T cells), CD8 (killer T cells), CD25 (activated helper T cells and regulatory T cells), CD45 (macrophage and microglial cells) and F4/80 (macrophage and microglial cells) 5×10^5 cells/100 μL FACS buffer (PBS, 0.02% sodium azide [Sigma-Aldrich] and 2% bovine serum albumin) were incubated with appropriate antibodies from BD biosciences, Mountain View, Calif. […] Expression was analyzed (FACSCalibur with CellQuest software; BD Biosciences, Mountain View, Calif.).

tear TNF-alpha and IL17 = assay: Dry eye desiccating stress in mice, adoptive transfer of CD4+ T cells, recipient tear cytokines; format: in vivo; settings: donor mice treated 3 mg/kg/day for 10 days during desiccating stress; CD4+ T cells transferred to nude mice, FIG. 11
Excerpt: C57BL/6 (C57BL/6NTac) and B6.Cg/NTac-Foxn1nuNE9 were purchased from Taconic, Inc. (Germantown, N.Y.). Mice were used at 6-10 weeks of age. Animal studies approval was obtained from the Allergan Animal Care and Use Committee. All studies adhered to the Association for Research in Vision and Ophthalmology statement for the Use of Animals in Ophthalmic and Vision Research. As described in the literature dry eye was induced by treating mice with subcutaneous injections of scopolamine hydrobromide (0.5 mg/0.2 ml; Sigma-Aldrich, St. Louis, Mo.) three times a day alternating between the left and right flanks (Neiderkorn et al, 2006). […] Histological analysis was done by staining […] samples with antibody to CD4 and H&E staining to quantify goblet cells and T cells in the conjunctiva. […]
The levels of cytokines were measured with a sensitive, fluorescent multiplex immunobead assay (Luminex; Biosource-Invitrogen, Carlsbad, Calif.). […] Cytokine levels in samples were analyzed by using the corresponding Millipore cytokine Beadmate pairs. […] Beads were washed, resuspended in 125 μl of Beadlyte buffer, and analyzed by Luminex 100 instrument (Luminex Corporation, Austin, Tex.). The mean fluorescence intensities obtained from 50 beads per cytokine minimum were analyzed using Upstate Beadview software. […]

## CCC1=CC(Cc2c[nH]cn2)CCC1 (stereo not drawn) [Compound B]
CD4+/CD25+ Treg cells
  frequency of spleen CD4+ T cells that are CD4+/CD25+ Treg cells: Sustained increase
Tear TNF-alpha and IL17
  recipient tear level of IL-17: significantly reduced
  recipient tear level of TNFα: significantly reduced
